Experiment [1] addresses T1, BRG-1 (Homo sapiens, UniProt P51532).
T1 construct: made in house; host or cells: High Five insect cells
Nature of the experiment: ATPase catalytic activity of BRG-1, ADP-Glo in vitro biochemical assay. The note with it: ATPase catalytic activity, ADP-Glo; 30 nM BRG-1, 400 μM ATP; read-out: BRG1 IC50. The method, boiled down:
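Biochemical ADP-Glo assay, BRG-1. Post-reaction: ATP depletion reagent, 40 min RT; ADP→ATP conversion/detection reagent, 60 min RT; luminescence read on plate luminometer.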

For experiment [2], the target named is T2, BRM (Homo sapiens, UniProt P51531).
T2 construct: made in house; host or cells: High Five insect cells
T2 sequence (P51531 whole entry): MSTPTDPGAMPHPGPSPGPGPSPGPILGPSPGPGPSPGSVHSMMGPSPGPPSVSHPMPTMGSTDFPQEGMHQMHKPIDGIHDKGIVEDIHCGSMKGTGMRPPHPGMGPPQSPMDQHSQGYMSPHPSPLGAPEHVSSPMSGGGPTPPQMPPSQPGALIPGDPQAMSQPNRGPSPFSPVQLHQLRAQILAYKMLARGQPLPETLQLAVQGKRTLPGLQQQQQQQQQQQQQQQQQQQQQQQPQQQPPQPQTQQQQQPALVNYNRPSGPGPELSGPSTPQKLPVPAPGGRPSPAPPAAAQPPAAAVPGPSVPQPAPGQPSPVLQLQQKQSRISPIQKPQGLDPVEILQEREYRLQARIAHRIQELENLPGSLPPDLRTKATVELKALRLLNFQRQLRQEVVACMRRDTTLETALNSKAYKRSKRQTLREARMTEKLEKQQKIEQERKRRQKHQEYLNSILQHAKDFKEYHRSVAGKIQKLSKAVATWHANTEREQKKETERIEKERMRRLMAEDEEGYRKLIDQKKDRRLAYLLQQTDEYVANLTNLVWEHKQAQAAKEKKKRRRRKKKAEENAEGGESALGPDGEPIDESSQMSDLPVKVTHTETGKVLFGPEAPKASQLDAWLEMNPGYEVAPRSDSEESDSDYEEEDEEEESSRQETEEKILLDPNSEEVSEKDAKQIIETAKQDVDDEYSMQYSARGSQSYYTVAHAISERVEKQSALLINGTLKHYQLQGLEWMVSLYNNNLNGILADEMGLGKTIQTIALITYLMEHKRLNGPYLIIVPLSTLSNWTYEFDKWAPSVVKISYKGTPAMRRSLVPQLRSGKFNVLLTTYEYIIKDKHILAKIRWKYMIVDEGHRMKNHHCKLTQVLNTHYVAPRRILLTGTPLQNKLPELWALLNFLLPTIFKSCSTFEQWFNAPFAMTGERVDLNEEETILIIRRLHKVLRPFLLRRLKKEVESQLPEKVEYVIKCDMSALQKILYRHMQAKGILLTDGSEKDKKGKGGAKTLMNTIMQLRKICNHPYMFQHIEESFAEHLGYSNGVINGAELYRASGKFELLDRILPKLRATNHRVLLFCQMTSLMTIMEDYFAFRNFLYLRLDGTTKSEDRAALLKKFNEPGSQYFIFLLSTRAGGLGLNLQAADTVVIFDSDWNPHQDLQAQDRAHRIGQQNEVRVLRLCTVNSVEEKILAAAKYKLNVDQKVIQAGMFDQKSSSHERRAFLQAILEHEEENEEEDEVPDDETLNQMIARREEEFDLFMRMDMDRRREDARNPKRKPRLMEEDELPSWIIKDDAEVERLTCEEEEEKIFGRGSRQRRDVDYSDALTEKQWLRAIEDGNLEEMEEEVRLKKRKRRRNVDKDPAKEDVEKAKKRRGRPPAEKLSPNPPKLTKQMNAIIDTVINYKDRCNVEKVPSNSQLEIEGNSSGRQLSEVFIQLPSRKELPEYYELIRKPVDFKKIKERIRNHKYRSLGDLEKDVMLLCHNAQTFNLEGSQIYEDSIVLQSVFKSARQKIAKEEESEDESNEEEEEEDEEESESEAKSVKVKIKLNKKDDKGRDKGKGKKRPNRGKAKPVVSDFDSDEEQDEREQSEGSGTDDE
Nature of the experiment: ATPase catalytic activity of BRM, ADP-Glo in vitro biochemical assay. The note with it: for IC50: ATPase catalytic activity, ADP-Glo, 30 nM BRM, 400 μM ATP; for Ratio*: ratio of BRG1 IC50 to BRM IC50. The essentials:
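Recombinant BRM (30 nM) hydrolysed 400 μM ATP with 20 nM salmon sperm DNA in pH 8 Tris buffer containing 20 mM MgCl2, 50 mM NaCl, 0.1% Tween-20 and 1 mM DTT, 1 h at room temperature. ADP formed was quantified by ADP-Glo luminescence.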

T1 sequence (P51532 whole entry): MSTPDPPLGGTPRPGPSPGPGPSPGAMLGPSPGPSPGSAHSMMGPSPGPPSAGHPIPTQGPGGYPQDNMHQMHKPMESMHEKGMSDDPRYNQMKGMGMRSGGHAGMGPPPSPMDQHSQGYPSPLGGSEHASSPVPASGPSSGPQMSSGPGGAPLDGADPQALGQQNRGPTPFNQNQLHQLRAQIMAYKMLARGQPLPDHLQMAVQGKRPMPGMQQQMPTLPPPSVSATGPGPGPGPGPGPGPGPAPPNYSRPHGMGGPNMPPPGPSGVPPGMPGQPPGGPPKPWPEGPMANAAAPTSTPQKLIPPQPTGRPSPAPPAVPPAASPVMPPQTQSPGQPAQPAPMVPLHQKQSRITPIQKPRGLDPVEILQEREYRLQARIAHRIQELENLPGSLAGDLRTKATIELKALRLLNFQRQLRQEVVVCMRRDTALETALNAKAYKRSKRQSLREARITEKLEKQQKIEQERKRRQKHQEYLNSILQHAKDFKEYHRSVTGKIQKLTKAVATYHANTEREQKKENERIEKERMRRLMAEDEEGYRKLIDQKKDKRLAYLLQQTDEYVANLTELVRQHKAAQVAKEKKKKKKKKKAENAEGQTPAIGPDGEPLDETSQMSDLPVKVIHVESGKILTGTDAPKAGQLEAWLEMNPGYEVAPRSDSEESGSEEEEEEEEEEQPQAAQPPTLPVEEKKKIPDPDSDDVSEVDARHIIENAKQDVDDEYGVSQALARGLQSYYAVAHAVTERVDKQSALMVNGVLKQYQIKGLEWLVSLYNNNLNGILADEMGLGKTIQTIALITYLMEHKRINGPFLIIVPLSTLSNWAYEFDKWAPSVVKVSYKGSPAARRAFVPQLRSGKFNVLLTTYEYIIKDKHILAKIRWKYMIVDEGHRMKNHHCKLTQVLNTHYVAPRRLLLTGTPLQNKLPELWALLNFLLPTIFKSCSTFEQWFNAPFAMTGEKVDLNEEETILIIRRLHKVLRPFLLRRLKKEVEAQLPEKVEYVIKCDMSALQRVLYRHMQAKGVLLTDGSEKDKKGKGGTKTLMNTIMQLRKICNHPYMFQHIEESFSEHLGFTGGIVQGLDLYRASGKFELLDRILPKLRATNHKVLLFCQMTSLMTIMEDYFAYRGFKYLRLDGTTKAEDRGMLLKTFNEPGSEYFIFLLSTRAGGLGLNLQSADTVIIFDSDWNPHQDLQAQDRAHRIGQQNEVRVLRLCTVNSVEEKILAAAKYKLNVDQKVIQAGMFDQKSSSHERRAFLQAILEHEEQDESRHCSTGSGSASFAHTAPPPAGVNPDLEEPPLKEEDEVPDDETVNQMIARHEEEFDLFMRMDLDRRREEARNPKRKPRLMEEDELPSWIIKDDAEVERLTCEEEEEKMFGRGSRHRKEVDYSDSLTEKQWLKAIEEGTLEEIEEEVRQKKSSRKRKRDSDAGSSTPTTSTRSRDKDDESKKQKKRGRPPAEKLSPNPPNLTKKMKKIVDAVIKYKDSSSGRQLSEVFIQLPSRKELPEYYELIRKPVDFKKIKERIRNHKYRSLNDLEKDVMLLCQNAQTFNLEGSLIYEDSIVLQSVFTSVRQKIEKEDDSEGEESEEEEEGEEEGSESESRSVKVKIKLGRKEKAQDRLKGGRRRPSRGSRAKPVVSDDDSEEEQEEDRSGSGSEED

Regarding `COC[C@@H]1C[C@H]1N(C)c1cccc(-c2ccc3cnc(CNC(=O)c4ccc5c(c4)S(=O)(=O)CCOC5)cc3n2)n1` [Compound 311], in experiment [1], the half-inhibitory concentration (IC50) was 283 nM. Also, in experiment [2], the half-maximal inhibitory concentration (IC50) is 22 nM and the “Ratio*” value is recorded as 12.86.
For `COC[C@H]1C[C@@H]1N(C)c1cccc(-c2ccc3cnc(CNC(=O)c4ccc5c(c4)S(=O)(=O)CCOC5)cc3n2)n1` [Compound 312] the same measures were 326 nM, 24.5 nM and 13.30.
For `COCCN1CCCOc2c(-c3ccc4cnc(CNC(=O)c5ccc6c(c5)S(=O)(=O)CCOC6)cc4n3)cccc21` [Compound 313] the same measures were 387 nM, 105 nM and 3.69.
The matching figures for `CN(CC1(F)COC1)c1cccc(-c2ccc3cnc(CNC(=O)c4ccc5c(c4)S(=O)(=O)CCOC5)cc3n2)n1` [Compound 314]: 480 nM, 45.7 nM and 10.51.
Turning to `Cc1ccc2c(n1)N(c1ccc3cnc(CNC(=O)c4ccc5c(c4)S(=O)(=O)CCOC5)cc3n1)CCC2` [Compound 315], the concentration for half-maximal inhibition (IC50) in experiment [1] is 340 nM. Besides, in experiment [2], the IC50 was 18.4 nM and the “Ratio*” value is reported as 18.47.
The matching figures for `COc1cc(CC(F)F)ccc1-c1ccc2cnc(CNC(=O)c3ccc4c(c3)S(=O)(=O)CCOC4)cc2n1` [Compound 316]: 495 nM, 47.1 nM and 10.49.
For `C[C@]1(F)CCCN(c2cccc(-c3ccc4cnc(CNC(=O)c5ccc6c(c5)S(=O)(=O)CCOC6)cc4n3)n2)C1` [Compound 317], the half-inhibitory concentration (IC50) came out at 34.8 nM in experiment [1] and 6.3 nM in experiment [2]. Further, in experiment [2], the “Ratio*” value was found to be 5.55.
For `C[C@@]1(F)CCCN(c2cccc(-c3ccc4cnc(CNC(=O)c5ccc6c(c5)S(=O)(=O)CCOC6)cc4n3)n2)C1` [Compound 318] the same measures were 80.4 nM, 9.4 nM and 8.53.
The matching figures for `CC1COCc2ccc(C(=O)NCc3cc4nc(-c5cccc(N6C[C@@H](C)O[C@@H](C)C6)n5)ccc4cn3)cc2S1(=O)=O` (stereo partly drawn) [Compound 319]: 329 nM, 21.1 nM and 15.59.
For `COc1cc(C(F)F)ccc1-c1ccc2cnc(CNC(=O)c3ccc4c(c3)S(=O)(=O)[C@@H](C)COC4)cc2n1` [Compound 320], the IC50 in experiment [1] came out at 226 nM. Moreover, in experiment [2], inhibition was half-maximal at 12 nM (IC50) and the “Ratio*” value was 18.81.
The matching figures for `O=C(NCc1cc2nc(-c3cccc(N4CC[C@@H]5C[C@@H]5C4)n3)ccc2cn1)c1ccc2c(c1)S(=O)(=O)CCOC2` [Compound 321]: 195 nM, 16 nM and 12.19.
The matching figures for `O=C(NCc1cc2nc(-c3cccc(N4CC[C@H]5C[C@H]5C4)n3)ccc2cn1)c1ccc2c(c1)S(=O)(=O)CCOC2` [Compound 322]: 120 nM, 11 nM and 10.96.
For `COC1(CN(C)c2cccc(-c3ccc4cnc(CNC(=O)c5ccc6c(c5)S(=O)(=O)CCOC6)cc4n3)n2)CC1` [Compound 323] the same measures were 230 nM, 17.1 nM and 13.46.
`CC1CCc2ccc(C(=O)NCc3cc4nc(-c5cccc(N6C[C@@H](C)O[C@@H](C)C6)n5)ccc4cn3)cc2S1(=O)=O` (stereo partly drawn) [Compound 324]: the IC50 in experiment [1] worked out at 614 nM; in experiment [2] it was 24.8 nM. The “Ratio*” value in experiment [2] is given as 24.73.
Turning to `C[C@@H]1CN(c2cccc(-c3ccc4cnc([C@H](C)NC(=O)c5ccc6c(c5)S(=O)(=O)[C@@H](C)COC6)cc4n3)n2)C[C@H](C)O1` [Compound 325], the IC50 in experiment [1] was 174 nM; in experiment [2], 10.6 nM. Besides, the “Ratio*” value in experiment [2] is recorded as 16.33.
For the compound `COCCN1c2cccc(-c3ccc4cnc(CNC(=O)c5ccc6c(c5)S(=O)(=O)CCOC6)cc4n3)c2OCC1C` (stereo not drawn) [Compound 326], in experiment [1], the IC50 was 81 nM. In addition, in experiment [2], inhibition was half-maximal at 9.9 nM (IC50) and the “Ratio*” value was determined as 8.22.
For `O=C(NCc1cc2nc(-c3ccc(Cl)c(OC(F)F)n3)ccc2cn1)c1ccc2c(c1)S(=O)(=O)CCOC2` [Compound 327] the same measures were 291 nM, 19.2 nM and 15.15.
For `COc1nc(C(F)F)ccc1-c1ccc2cnc(CNC(=O)c3ccc4c(c3)S(=O)(=O)CCOC4)cc2n1` [Compound 329] the same measures were 130 nM, 8.6 nM and 15.19.
The matching figures for `CCOc1cccc(-c2ccc3cnc(CNC(=O)c4ccc5c(c4)S(=O)(=O)[C@@H](C)COC5)cc3n2)n1` [Compound 330]: 473 nM, 11 nM and 43.09.
With `C[C@H]1COCc2ccc(C(=O)NCc3cc4nc(-c5cccc(C6CC6)n5)ccc4cn3)cc2S1(=O)=O` [Compound 331], the values for the IC50 in experiment [1] and in experiment [2] were 418 nM and 13.5 nM, respectively. Also, the “Ratio*” value in experiment [2] is given as 30.98.
With `CO[C@H]1CN(c2cccc(-c3ccc4cnc(CNC(=O)c5ccc6c(c5)S(=O)(=O)CCOC6)cc4n3)n2)C[C@H]1F` [Compound 332], the half-maximal inhibitory concentration (IC50) in experiment [1] is 224 nM; in experiment [2] it was 16.6 nM. The “Ratio*” value in experiment [2] was found to be 13.49.
For `CO[C@@H]1CN(c2cccc(-c3ccc4cnc(CNC(=O)c5ccc6c(c5)S(=O)(=O)CCOC6)cc4n3)n2)C[C@@H]1F` [Compound 333] the same measures were 227 nM, 17.1 nM and 13.29.
With `C[C@@H]1C[C@@H](N(C)c2cccc(-c3ccc4cnc(CNC(=O)c5ccc6c(c5)S(=O)(=O)CCOC6)cc4n3)n2)C[C@H](C)O1` [Compound 334], the half-maximal inhibitory concentration (IC50) in experiment [1] came out at 377 nM. In experiment [2], half-maximal inhibition (IC50) required 21.2 nM and the “Ratio*” value is on record as 17.82.
Take `COc1cc(C(F)(F)F)ccc1-c1ccc2cnc(CNC(=O)c3ccc4c(c3)S(=O)(=O)CCOC4)cc2n1` [Compound 335]: the half-inhibitory concentration (IC50) in experiment [1] amounted to 288 nM; in experiment [2] it was 24.3 nM. Besides, the “Ratio*” value in experiment [2] came out at 11.87.
In the case of `COCCn1ccc2c(-c3ccc4cnc(CNC(=O)c5ccc6c(c5)S(=O)(=O)CCOC6)cc4n3)ccnc21` [Compound 336], in experiment [1], the IC50 turned out to be 107 nM. Moreover, in experiment [2], the half-inhibitory concentration (IC50) stood at 6.6 nM and the “Ratio*” value worked out at 16.08.
The matching figures for `CCN(c1cccc(-c2ccc3cnc(CNC(=O)c4ccc5c(c4)S(=O)(=O)CCOC5)cc3n2)n1)C1CC1` [Compound 337]: 211 nM, 21.9 nM and 9.67.
For `CCN(c1cccc(-c2ccc3cnc(CNC(=O)c4cc(F)c5c(c4)S(=O)(=O)CCOC5)cc3n2)n1)C1CC1` [Compound 338] the same measures were 219 nM, 20.1 nM and 10.88.
For `CO[C@H]1CN(c2cccc(-c3ccc4cnc(CNC(=O)c5ccc6c(c5)S(=O)(=O)CCOC6)cc4n3)n2)C[C@@H]1F` [Compound 339] the same measures were 85.8 nM, 9.6 nM and 8.89.
Consider `CO[C@@H]1CN(c2cccc(-c3ccc4cnc(CNC(=O)c5ccc6c(c5)S(=O)(=O)CCOC6)cc4n3)n2)C[C@H]1F` [Compound 340], for which the IC50 in experiment [1] was found to be 309 nM; in experiment [2], 22.2 nM. The “Ratio*” value in experiment [2] worked out at 13.96.
The matching figures for `O=C(NCc1cc2nc(-c3cccc(N4CCOCC(F)(F)C4)n3)ccc2cn1)c1ccc2c(c1)S(=O)(=O)CCOC2` [Compound 341]: 185 nM, 25.1 nM and 7.37.
For `CN1CC[C@H](Oc2cccc(-c3ccc4cnc(CNC(=O)c5ccc6c(c5)S(=O)(=O)CCOC6)cc4n3)n2)C1` [Compound 342] the same measures were 4320 nM, 283 nM and 15.24.
For `COC1CCS(=O)(=O)c2cc(C(=O)NCc3cc4nc(-c5cccc(N6C[C@@H](C)O[C@@H](C)C6)n5)ccc4cn3)ccc2C1` (stereo partly drawn) [Compound 344] the same measures were 20.3 nM, 7.6 nM and 2.68.
Take `CCN(C[C@H](C)OC)c1cccc(-c2ccc3cnc(CNC(=O)c4ccc5c(c4)S(=O)(=O)CCOC5)cc3n2)n1` [Compound 345]: the IC50 in experiment [1] turned out to be 251 nM. In experiment [2], the midpoint of inhibition, the IC50, lay at 15 nM and the “Ratio*” value is listed as 16.77.
The matching figures for `COC[C@H]1C[C@H]1c1cccc(-c2ccc3cnc(CNC(=O)c4ccc5c(c4)S(=O)(=O)CCOC5)cc3n2)n1` [Compound 346]: 2770 nM, 368 nM and 7.55.
For `COCCN(C)c1cccc(-c2ccc3cnc(CNC(=O)c4ccc5c(c4)S(=O)(=O)CCOC5)cc3n2)c1OC` [Compound 347] the same measures were 3730 nM, 1230 nM and 3.03.
For the compound `CS(=O)(=O)c1cc(C(=O)NCc2cc3nc(-c4cn([C@H]5C[C@H](F)C5)nc4OC(F)F)ccc3cn2)ccc1C(F)F` [Compound 348], the IC50 in experiment [1] is 2560 nM. Further, in experiment [2], the IC50 came to 74.3 nM and the “Ratio*” value is given as 34.42.
`COCCN(c1cccc(-c2ccc3cnc(CNC(=O)c4ccc5c(c4)S(=O)(=O)CCOC5)cc3n2)n1)C1CC1` [Compound 349]: the IC50 in experiment [1] worked out at 253 nM. In experiment [2], half-maximal inhibition (IC50) required 24.1 nM and the “Ratio*” value stood at 10.47.
On to `Cc1ccc2c(c1)CCCN2c1ccc2cnc(CNC(=O)c3ccc4c(c3)S(=O)(=O)CCOC4)cc2n1` [Compound 350], for which, in experiment [1], the IC50 is 105 nM. In experiment [2], the IC50 is 8.1 nM and the “Ratio*” value is 12.99.
